Experiment [1] deals with T1, CypD (Homo sapiens, UniProt P30405). Kind of experiment: SPR binding. To be noted: SPR surface; read-out: SPR CypD (KDSS).
Excerpt: Binding was confirmed on an SPR surface using a protocol adapted from Mori et al., J. Biomolecular Screening, 2009 p 419.
Experiment [2] deals with T1, CypD. Kind of experiment: CypD binding assay (competition fluorescence polarisation with fluorescein-labelled cyclosporin). On the procedure: The binding capacity of the compounds were measured using a competition Fluorescence-Polarisation based assay with fluorescine labelled cyclosporin. The protocol used was adapted from Hausch et al, Med Chem lett 2010, p 536.

Structures are written as SMILES.

T1 sequence (P30405 30-207): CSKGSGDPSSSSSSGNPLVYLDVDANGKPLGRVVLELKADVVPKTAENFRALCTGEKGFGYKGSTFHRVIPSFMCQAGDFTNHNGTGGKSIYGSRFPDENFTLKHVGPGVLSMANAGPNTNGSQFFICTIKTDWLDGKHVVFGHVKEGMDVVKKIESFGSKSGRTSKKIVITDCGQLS

Consider `CCN1Cc2cc(CNC(=O)NCC(=O)N3CCC[C@@H]3C(F)(F)F)ccc2NCCC1=O` [Compound 24, 1-(5-Ethyl-4-oxo-1,2,3,4,5,6-hexahydro-benzo[b][1,5]diazocin-8-ylmethyl)-3-[2-oxo-2-((R)-2-trifluoromethyl-pyrrolidin-1-yl)-ethyl]-urea], for which the Kd on CypD [1] fell in the range of 1000 to 100000 nM. Further, the IC50 on CypD [2] lay within 1000 to 100000 nM.

For the molecule `C[C@H](c1ccccc1)N(C)C(=O)CNC(=O)NCc1ccc2c(c1)[C@H]1C[C@@H](N2)[C@H](O)CO1` [Compound 38, 2-(3-(((2R,3S,6R)-3-hydroxy-2,3,4,6-tetrahydro-1H-2,6-methanobenzo[c][1,5]oxazocin-8-yl)methyl)ureido)-N-methyl-N—((R)-1-phenylethyl)acetamide], the Kd at CypD [1] was in the range of 1000 to 100000 nM. For the same molecule, the IC50 on CypD [2] was in the range of 1000 to 100000 nM.

In the case of `CSc1ccccc1[C@H]1CCCN1C(=O)CNC(=O)NC(C)c1ccc2c(c1)CCCC(=O)N2` (stereo partly drawn) [Compound 21, 1-{2-[(R)-2-(2-Methylsulfanyl-phenyl)-pyrrolidin-1-yl]-2-oxo-ethyl}-3-[1-(2-oxo-2,3,4,5-tetrahydro-1H-benzo[b]azepin-7-yl)-ethyl]-urea], the Kd on CypD [1] lay in the range of 1000 to 100000 nM. Also, the 50% inhibitory concentration (IC50) on CypD [2] was in the range of 1000 to 100000 nM.

Regarding `CCN1Cc2cc(CNC(=O)NCC(=O)N3CCC[C@H]3CO)ccc2NCCC1=O` [Compound 22, 1-(5-Ethyl-4-oxo-1,2,3,4,5,6-hexahydro-benzo[b][1,5]diazocin-8-ylmethyl)-3-[2-((S)-2-hydroxymethyl-pyrrolidin-1-yl)-2-oxo-ethyl]-urea], at CypD [1], the Kd is 1000 to 100000 nM. In addition, the 50% inhibitory concentration (IC50) at CypD [2] is 1000 to 100000 nM.

For the molecule `CCn1nnc(CNC(=O)NCc2ccc3c(c2)[C@H]2C[C@@H](N3)[C@H](O)CO2)n1` [Compound 39, 1-((2-ethyl-2H-tetrazol-5-yl)methyl)-3-(((2R,3S,6R)-3-hydroxy-2,3,4,6-tetrahydro-1H-2,6-methanobenzo[c][1,5]oxazocin-8-yl)methyl)urea], the Kd on CypD [1] fell in the range of 1000 to 100000 nM. At CypD [2], the 50% inhibitory concentration (IC50) was in the range of 1000 to 100000 nM.

As for `CSc1ccccc1[C@H]1CCCN1C(=O)CNC(=O)CCc1ccc2c(c1)[C@H]1C[C@@H](N2)[C@H](O)CO1` [Compound 5, 3-((1R,9R,10S)-10-Hydroxy-12-oxa-8-aza-tricyclo[7.3.1.02,7]trideca-2(7),3,5-trien-4-yl)-N-{2-[(R)-2-(2-methylsulfanyl-phenyl)-pyrrolidin-1-yl]-2-oxo-ethyl}-propionamide], the Kd at CypD [1] was under 1000 nM. The same molecule showed an IC50 at CypD [2] of under 1000 nM.

For the molecule `O=C(NCC(=O)N1CCC[C@@H]1C(F)(F)F)NCc1ccc2c(c1)[C@@H]1C[C@H](N2)[C@H](O)CO1` [Compound 37, 1-(((2S,3S,6S)-3-hydroxy-2,3,4,6-tetrahydro-1H-2,6-methanobenzo[c][1,5]oxazocin-8-yl)methyl)-3-(2-oxo-2-((R)-2-(trifluoromethyl)pyrrolidin-1-yl)ethyl)urea], the Kd on CypD [1] lay in the range of 1000 to 100000 nM. This molecule registered an IC50 on CypD [2] of 1000 to 100000 nM.

As to `O=C(NCC(=O)N1CCC[C@@H]1CO)NCc1ccc2c(c1)[C@H]1C[C@@H](N2)[C@H](O)CO1` [Compound 14, 1-(((2R,3S,6R)-3-hydroxy-2,3,4,6-tetrahydro-1H-2,6-methanobenzo[c][1,5]oxazocin-8-yl)methyl)-3-(2-((R)-2-(hydroxymethyl)pyrrolidin-1-yl)-2-oxoethyl)urea], the Kd at CypD [1] fell in the range of 1000 to 100000 nM. This molecule had an IC50 at CypD [2] of 1000 to 100000 nM.

For `CCN1Cc2cc(CCC(=O)NCC(=O)N(C)[C@H](C)c3ccccc3)ccc2NCCC1=O` [Compound 31, (R)-3-(5-ethyl-4-oxo-1,2,3,4,5,6-hexahydrobenzo[b][1,5]diazocin-8-yl)-N-(2-(methyl(1-phenylethyl)amino)-2-oxoethyl)propanamide], the Kd at CypD [1] fell in the range of 1000 to 100000 nM. The molecule further had an IC50 on CypD [2] of 1000 to 100000 nM.

Regarding `O=C(NCC(=O)N1CCC[C@H]1CO)NCc1ccc2c(c1)[C@H]1C[C@@H](N2)[C@H](O)CO1` [Compound 13, 1-(((2R,3S,6R)-3-hydroxy-2,3,4,6-tetrahydro-1H-2,6-methanobenzo[c][1,5]oxazocin-8-yl)methyl)-3-(2-((S)-2-(hydroxymethyl)pyrrolidin-1-yl)-2-oxoethyl)urea], the Kd at CypD [1] lay within 1000 to 100000 nM. Moreover, the half-maximal inhibitory concentration (IC50) on CypD [2] fell in the range of 1000 to 100000 nM.

Turning to `CCN1Cc2cc(CCC(=O)N[C@@H](CO)C(=O)N3CCCC3)ccc2NCCC1=O` [Compound 29, 3-(5-Ethyl-4-oxo-1,2,3,4,5,6-hexahydro-benzo[b][1,5]diazocin-8-yl)-N—((S)-1-hydroxymethyl-2-oxo-2-pyrrolidin-1-yl-ethyl)-propionamide], on CypD [1], the Kd fell in the range of 1000 to 100000 nM. On CypD [2], this molecule came in with a concentration for half-maximal inhibition (IC50) of 1000 to 100000 nM.

`CCN1Cc2cc(CNC(=O)NCC(=O)N3CCCC3c3ccccc3C(F)(F)F)ccc2NCCC1=O` (centres unmarked) [Compound 15, 1-(5-Ethyl-4-oxo-1,2,3,4,5,6-hexahydro-benzo[b][1,5]diazocin-8-ylmethyl)-3-{2-oxo-2-[2-(2-trifluoromethyl-phenyl)-pyrrolidin-1-yl]-ethyl}-urea]: the Kd on CypD [1] was in the range of 1000 to 100000 nM. Also, the IC50 on CypD [2] is 1000 to 100000 nM.

Regarding `CCN1Cc2cc(CCC(=O)NCC(=O)N3CCCC4(CCCCC4)C3)ccc2NCCC1=O` [Compound 25, N-[2-(2-Aza-spiro[5.5]undec-2-yl)-2-oxo-ethyl]-3-(5-ethyl-4-oxo-1,2,3,4,5,6-hexahydro-benzo[b][1,5]diazocin-8-yl)-propionamide], the Kd at CypD [1] was 1000 to 100000 nM. On CypD [2], the IC50 is 1000 to 100000 nM.

Take `CCN1Cc2cc(CCC(=O)NCC(=O)N3CCC[C@@H]3CO)ccc2NCCC1=O` [Compound 33, 3-(5-Ethyl-4-oxo-1,2,3,4,5,6-hexahydro-benzo[b][1,5]diazocin-8-yl)-N-[2-(®-2-hydroxymethyl-pyrrolidin-1-yl)-2-oxo-ethyl]-propionamide]: at CypD [1], the Kd fell in the range of 1000 to 100000 nM. On CypD [2], this molecule displayed a half-maximal inhibitory concentration (IC50) of 1000 to 100000 nM.

Take `O=C(NCC(=O)N1CCCC1c1cccnc1)NCc1ccc2c(c1)[C@H]1C[C@@H](N2)[C@H](O)CO1` (stereo partly drawn) [Compound 18, 1-((1R,9R,10S)-10-Hydroxy-12-oxa-8-aza-tricyclo[7.3.1.02,7]trideca-2(7),3,5-trien-4-ylmethyl)-3-[2-oxo-2-(2-pyridin-3-yl-pyrrolidin-1-yl)-ethyl]-urea]: on CypD [1], the Kd is 1000 to 100000 nM. The same molecule registered an IC50 at CypD [2] of 1000 to 100000 nM.

Consider `CCN1Cc2cc(CCC(=O)NCC(=O)N3CCCC3)ccc2NCCC1=O` [Compound 27, 3-(5-Ethyl-4-oxo-1,2,3,4,5,6-hexahydro-benzo[b][1,5]diazocin-8-yl)-N-(2-oxo-2-pyrrolidin-1-yl-ethyl)-propionamide], for which the Kd on CypD [1] was in the range of 1000 to 100000 nM. Besides, at CypD [2], the IC50 fell in the range of 1000 to 100000 nM.

As to `CCN1Cc2cc(CCC(=O)NCC(=O)N3CCC[C@@H]3C(F)(F)F)ccc2NCCC1=O` [Compound 30, 3-(5-Ethyl-4-oxo-1,2,3,4,5,6-hexahydro-benzo[b][1,5]diazocin-8-yl)-N-[2-oxo-2-((R)-2-trifluoromethyl-pyrrolidin-1-yl)-ethyl]-propionamide], on CypD [1], the Kd lay in the range of 1000 to 100000 nM. In addition, the IC50 on CypD [2] lay in the range of 1000 to 100000 nM.

Take `O=C(NCC(=O)N1CCC[C@@H]1C(F)(F)F)NCc1ccc2c(c1)[C@H]1C[C@@H](N2)[C@H](O)CO1` [Compound 8, 1-(((2R,3S,6R)-3-hydroxy-2,3,4,6-tetrahydro-1H-2,6-methanobenzo[c][1,5]oxazocin-8-yl)methyl)-3-(2-oxo-2-((R)-2-(trifluoromethyl)pyrrolidin-1-yl)ethyl)urea]: the Kd at CypD [1] lay within 1000 to 100000 nM. At CypD [2], this molecule showed an IC50 of 1000 to 100000 nM.

Consider `O=C(NCC(=O)N1CCCC1c1ccccc1C(F)(F)F)NCc1ccc2c(c1)[C@H]1C[C@@H](N2)[C@H](O)CO1` (some centres unmarked) [Compound 4], for which the Kd on CypD [1] is under 1000 nM. Besides, the half-maximal inhibitory concentration (IC50) on CypD [2] is under 1000 nM.

As to `CSc1ccccc1[C@H]1CCCN1C(=O)CN(C)C(=O)NCc1ccc2c(c1)[C@H]1C[C@@H](N2)[C@H](O)CO1` [Compound 16, 3-((1R,9R,10S)-10-Hydroxy-12-oxa-8-aza-tricyclo[7.3.1.02,7]trideca-2(7),3,5-trien-4-ylmethyl)-1-methyl-1-{2-[(R)-2-(2-methylsulfanyl-phenyl)-pyrrolidin-1-yl]-2-oxo-ethyl}-urea], the Kd at CypD [1] fell in the range of 1000 to 100000 nM. In addition, on CypD [2], the IC50 was in the range of 1000 to 100000 nM.

With `CCN1Cc2cc(CCC(=O)NCC(=O)N3CCC[C@@H]3c3ccccc3SC)ccc2NCCC1=O` [Compound 11, 3-(5-Ethyl-4-oxo-1,2,3,4,5,6-hexahydro-benzo[b][1,5]diazocin-8-yl)-N-{2-[(R)-2-(2-methylsulfanyl-phenyl)-pyrrolidin-1-yl]-2-oxo-ethyl}-propionamide], the Kd at CypD [1] lay within 1000 to 100000 nM. This molecule yielded an IC50 at CypD [2] of 1000 to 100000 nM.

As for `CSc1ccccc1[C@H]1CCCN1C(=O)CNC(=O)CCc1ccc2c(c1)[C@@H]1C[C@H](N2)[C@H](O)CO1` [Compound 23, 3-((2S,3S,6S)-3-hydroxy-2,3,4,6-tetrahydro-1H-2,6-methanobenzo[c][1,5]oxazocin-8-yl)-N-(2-((R)-2-(2-(methylthio)phenyl)pyrrolidin-1-yl)-2-oxoethyl)propanamide], the Kd on CypD [1] was 1000 to 100000 nM. At CypD [2], this molecule displayed an IC50 of 1000 to 100000 nM.

As to `CN(C(=O)CNC(=O)NCc1ccc2c(c1)[C@H]1C[C@@H](N2)[C@H](O)CO1)C1CCCC1` [Compound 20, N-cyclopentyl-2-(3-(((2R,3S,6R)-3-hydroxy-2,3,4,6-tetrahydro-1H-2,6-methanobenzo[c][1,5]oxazocin-8-yl)methyl)ureido)-N-methylacetamide], the Kd at CypD [1] lay within 1000 to 100000 nM. In addition, the IC50 at CypD [2] fell in the range of 1000 to 100000 nM.

Take `C[C@H](NC(=O)CCc1ccc2c(c1)[C@H]1C[C@@H](N2)[C@H](O)CO1)C(=O)N1CCCC1` [Compound 6, 3-((2R,3S,6R)-3-hydroxy-2,3,4,6-tetrahydro-1H-2,6-methanobenzo[c][1,5]oxazocin-8-yl)-N—((S)-1-oxo-1-(pyrrolidin-1-yl)propan-2-yl)propanamide]: the Kd on CypD [1] was in the range of 1000 to 100000 nM. On CypD [2], this molecule came in with an IC50 of 1000 to 100000 nM.

On to `CCN1Cc2cc(CNC(=O)NCC(=O)N3CCCC3c3ccccn3)ccc2NCCC1=O` (centres unmarked) [Compound 36, 1-(5-Ethyl-4-oxo-1,2,3,4,5,6-hexahydro-benzo[b][1,5]diazocin-8-ylmethyl)-3-[2-oxo-2-(2-pyridin-2-yl-pyrrolidin-1-yl)-ethyl]-urea], for which the Kd at CypD [1] fell in the range of 1000 to 100000 nM. On CypD [2], this molecule returned an IC50 of 1000 to 100000 nM.

The values are drawn from patent publication US20170283425A1, “COMPOUNDS FOR THE INHIBITION OF CYCLOPHILINS AND USES THEREOF” (Merck Patent GmbH, priority 2016, published 2017).
